# Measured values reported in ChEMBL document CHEMBL3885861, “Open TG-GATES”.
# Species: Rattus norvegicus
# Assay: Open TG-GATES - Regimen: Daily Repeat
# Type: toxicity, organism-based, Sprague-Dawley
# Parameters: regimen Daily Repeat, gender Male, age 6 weeks
# Conditions: in vivo, po, 300 mg/kg, route gavage, dose level Middle; for APTT / Bas / Eos / Fbg / Hb / Ht / Lym / MCH / MCHC / MCV / Mono / Neu / PT / Plat / RBC / Ret / WBC: tissue Blood; for KIDNEY_L / KIDNEY_R / KIDNEY_TOTAL: tissue Kidney; for LIVER: tissue Liver; for A/G / ALP / ALT / AST / BUN / CRE / Ca / Cl / DBIL / GLC / IP / K / LDH / Na / PL / RALB / TBIL / TC / TG / TP / gamma-GTP: tissue Plasma
structure (smiles),measurement,setting,value
CC[C@@H](CO)NCCN[C@@H](CC)CO [ETHAMBUTOL],TERMINAL_BW,"72 h, time 3 day",239.4 g
same,APTT,"72 h, time 3 day",21.6 s
same,Bas,"72 h, time 3 day",0%
same,Eos,"72 h, time 3 day",1%
same,Fbg,"72 h, time 3 day",330.2 mg/dL
same,Hb,"72 h, time 3 day",13.7 g/dL
same,Ht,"72 h, time 3 day",40%
same,Lym,"72 h, time 3 day",75%
same,MCH,"72 h, time 3 day",21.8 pg
same,MCHC,"72 h, time 3 day",34.3%
same,MCV,"72 h, time 3 day",63.4 fL
same,Mono,"72 h, time 3 day",3%
same,Neu,"72 h, time 3 day",19.4%
same,PT,"72 h, time 3 day",15.9 s
same,Plat,"72 h, time 3 day",113.3 x10_4/uL
same,RBC,"72 h, time 3 day",630 x10_4/ul
same,Ret,"72 h, time 3 day",6.3%
same,WBC,"72 h, time 3 day",92.4 x10_2/uL
same,KIDNEY_L,"72 h, time 3 day",1 g
same,KIDNEY_R,"72 h, time 3 day",1.1 g
same,KIDNEY_TOTAL,"72 h, time 3 day",2.1 g
same,LIVER,"72 h, time 3 day",12.5 g
same,A/G,"72 h, time 3 day",1.3
same,ALP,"72 h, time 3 day",1720.4 IU/L
same,ALT,"72 h, time 3 day",43 IU/L
same,AST,"72 h, time 3 day",71 IU/L
same,BUN,"72 h, time 3 day",17.6 mg/dL
same,CRE,"72 h, time 3 day",0.2 mg/dL
same,Ca,"72 h, time 3 day",10.7 mg/dL
same,Cl,"72 h, time 3 day",108 meq/L
same,DBIL,"72 h, time 3 day",0 mg/dL
same,GLC,"72 h, time 3 day",209.6 mg/dL
same,IP,"72 h, time 3 day",7.6 mg/dL
same,K,"72 h, time 3 day",3.9 meq/L
same,LDH,"72 h, time 3 day",164.2 IU/L
same,Na,"72 h, time 3 day",140.8 meq/L
same,PL,"72 h, time 3 day",163.4 mg/dL
same,RALB,"72 h, time 3 day",3.2 g/dL
same,TBIL,"72 h, time 3 day",0.01 mg/dL
same,TC,"72 h, time 3 day",90.2 mg/dL
same,TG,"72 h, time 3 day",87.6 mg/dL
same,TP,"72 h, time 3 day",5.7 g/dL
same,gamma-GTP,"72 h, time 3 day",1.4 IU/L
same,TERMINAL_BW,"[…], time 7 day",262.8 g
same,TERMINAL_BW,"[…], time 14 day",299.9 g
same,TERMINAL_BW,"[…], time 28 day",296 g
same,APTT,"[…], time 7 day",20.8 s
same,Bas,"[…], time 7 day",0%
same,Eos,"[…], time 7 day",0.8%
same,Fbg,"[…], time 7 day",303.8 mg/dL
same,Hb,"[…], time 7 day",14.2 g/dL
same,Ht,"[…], time 7 day",41.4%
same,Lym,"[…], time 7 day",82.2%
same,MCH,"[…], time 7 day",20.7 pg
same,MCHC,"[…], time 7 day",34.3%
same,MCV,"[…], time 7 day",60.2 fL
same,Mono,"[…], time 7 day",2.4%
same,Neu,"[…], time 7 day",13%
same,PT,"[…], time 7 day",16.4 s
same,Plat,"[…], time 7 day",113.9 x10_4/uL
same,RBC,"[…], time 7 day",688.8 x10_4/ul
same,Ret,"[…], time 7 day",4.2%
same,WBC,"[…], time 7 day",98.6 x10_2/uL
same,APTT,"[…], time 14 day",20.4 s
same,Bas,"[…], time 14 day",0%
same,Eos,"[…], time 14 day",1%
same,Fbg,"[…], time 14 day",274.2 mg/dL
same,Hb,"[…], time 14 day",14.2 g/dL
same,Ht,"[…], time 14 day",42.3%
same,Lym,"[…], time 14 day",82.2%
same,MCH,"[…], time 14 day",19.2 pg
same,MCHC,"[…], time 14 day",33.7%
same,MCV,"[…], time 14 day",57 fL
same,Mono,"[…], time 14 day",2.4%
same,Neu,"[…], time 14 day",13.2%
same,PT,"[…], time 14 day",16.8 s
same,Plat,"[…], time 14 day",86.9 x10_4/uL
same,RBC,"[…], time 14 day",742.8 x10_4/ul
same,Ret,"[…], time 14 day",2.3%
same,WBC,"[…], time 14 day",118.5 x10_2/uL
same,APTT,"[…], time 28 day",21.4 s
same,Bas,"[…], time 28 day",0%
same,Eos,"[…], time 28 day",1.2%
same,Fbg,"[…], time 28 day",257.5 mg/dL
same,Hb,"[…], time 28 day",14.6 g/dL
same,Ht,"[…], time 28 day",42.3%
same,Lym,"[…], time 28 day",77.2%
same,MCH,"[…], time 28 day",17.9 pg
same,MCHC,"[…], time 28 day",34.5%
same,MCV,"[…], time 28 day",51.8 fL
same,Mono,"[…], time 28 day",2.8%
same,Neu,"[…], time 28 day",17.2%
same,PT,"[…], time 28 day",17.8 s
same,Plat,"[…], time 28 day",82.7 x10_4/uL
same,RBC,"[…], time 28 day",817.8 x10_4/ul
same,Ret,"[…], time 28 day",2%
same,WBC,"[…], time 28 day",127.3 x10_2/uL
same,KIDNEY_L,"[…], time 7 day",1.1 g
same,KIDNEY_R,"[…], time 7 day",1.1 g
same,KIDNEY_TOTAL,"[…], time 7 day",2.2 g
same,KIDNEY_L,"[…], time 14 day",1.3 g
same,KIDNEY_R,"[…], time 14 day",1.3 g
same,KIDNEY_TOTAL,"[…], time 14 day",2.6 g
same,KIDNEY_L,"[…], time 28 day",1.2 g
same,KIDNEY_R,"[…], time 28 day",1.3 g
same,KIDNEY_TOTAL,"[…], time 28 day",2.5 g
same,LIVER,"[…], time 7 day",12.5 g
same,LIVER,"[…], time 14 day",15.8 g
same,LIVER,"[…], time 28 day",14.5 g
same,A/G,"[…], time 7 day",1.1
same,ALP,"[…], time 7 day",1774.8 IU/L
same,ALT,"[…], time 7 day",60.2 IU/L
same,AST,"[…], time 7 day",92.2 IU/L
same,BUN,"[…], time 7 day",20.4 mg/dL
same,CRE,"[…], time 7 day",0.2 mg/dL
same,Ca,"[…], time 7 day",10.2 mg/dL
same,Cl,"[…], time 7 day",107.4 meq/L
same,DBIL,"[…], time 7 day",0.002 mg/dL
same,GLC,"[…], time 7 day",172.2 mg/dL
same,IP,"[…], time 7 day",7.9 mg/dL
same,K,"[…], time 7 day",4 meq/L
same,LDH,"[…], time 7 day",196 IU/L
same,Na,"[…], time 7 day",142.2 meq/L
same,PL,"[…], time 7 day",141.4 mg/dL
same,RALB,"[…], time 7 day",2.8 g/dL
same,TBIL,"[…], time 7 day",0.026 mg/dL
same,TC,"[…], time 7 day",73 mg/dL
same,TG,"[…], time 7 day",43.2 mg/dL
same,TP,"[…], time 7 day",5.3 g/dL
same,gamma-GTP,"[…], time 7 day",1.8 IU/L
same,A/G,"[…], time 14 day",1.1
same,ALP,"[…], time 14 day",2103.2 IU/L
same,ALT,"[…], time 14 day",68 IU/L
same,AST,"[…], time 14 day",115.2 IU/L
same,BUN,"[…], time 14 day",24.4 mg/dL
same,CRE,"[…], time 14 day",0.2 mg/dL
same,Ca,"[…], time 14 day",9.8 mg/dL
same,Cl,"[…], time 14 day",106.4 meq/L
same,DBIL,"[…], time 14 day",0.02 mg/dL
same,GLC,"[…], time 14 day",197 mg/dL
same,IP,"[…], time 14 day",7.2 mg/dL
same,K,"[…], time 14 day",4.6 meq/L
same,LDH,"[…], time 14 day",520.6 IU/L
same,Na,"[…], time 14 day",139.8 meq/L
same,PL,"[…], time 14 day",139.8 mg/dL
same,RALB,"[…], time 14 day",2.6 g/dL
same,TBIL,"[…], time 14 day",0.042 mg/dL
same,TC,"[…], time 14 day",79.4 mg/dL
same,TG,"[…], time 14 day",26.4 mg/dL
same,TP,"[…], time 14 day",4.9 g/dL
same,gamma-GTP,"[…], time 14 day",1.8 IU/L
same,A/G,"[…], time 28 day",1
same,ALP,"[…], time 28 day",1083.5 IU/L
same,ALT,"[…], time 28 day",66.5 IU/L
same,AST,"[…], time 28 day",136 IU/L
same,BUN,"[…], time 28 day",19.2 mg/dL
same,CRE,"[…], time 28 day",0.2 mg/dL
same,Ca,"[…], time 28 day",9.4 mg/dL
same,Cl,"[…], time 28 day",109.8 meq/L
same,DBIL,"[…], time 28 day",0.0275 mg/dL
same,GLC,"[…], time 28 day",209 mg/dL
same,IP,"[…], time 28 day",6.8 mg/dL
same,K,"[…], time 28 day",4.2 meq/L
same,LDH,"[…], time 28 day",602.8 IU/L
same,Na,"[…], time 28 day",140.5 meq/L
same,PL,"[…], time 28 day",117.5 mg/dL
same,RALB,"[…], time 28 day",2.6 g/dL
same,TBIL,"[…], time 28 day",0.055 mg/dL
same,TC,"[…], time 28 day",70.5 mg/dL
same,TG,"[…], time 28 day",24.5 mg/dL
same,TP,"[…], time 28 day",5.3 g/dL
same,gamma-GTP,"[…], time 28 day",1.5 IU/L
